Laboratory results: patent US9890166B2, “Imidazopyrrolidine derivatives and their use in the treatment of disease” (NOVARTIS AG, priority 2013, dated 2018)

Key:
BRD3 (His-Brd3(20-477)) = BRD3 (His-Brd3(20-477)) (Homo sapiens (Human), UniProt Q15059); experiment: TR-FRET in-vitro binding assay for BRD3; details: single determination or n ≧ 2 independent determinations, read-out: Biochemical IC50 BRD3
How it was run: (§1)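 TR-FRET binding with His-tagged bromodomain constructs, 8-point compound dilutions from 10 mM DMSO stocks. Reactions incubated 35 min at 30° C in 13.55 μL, read on an EnVision multilabel reader.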

BRD2 (His-Brd2(60-472)) = BRD2 (His-Brd2(60-472)) (Homo sapiens (Human), UniProt P25440); experiment: TR-FRET in-vitro binding assay for BRD2; details: single determination or n ≧ 2 independent determinations, read-out: Biochemical IC50 BRD2
BRD2 (His-Brd2(60-472)), sequence (P25440 60-472): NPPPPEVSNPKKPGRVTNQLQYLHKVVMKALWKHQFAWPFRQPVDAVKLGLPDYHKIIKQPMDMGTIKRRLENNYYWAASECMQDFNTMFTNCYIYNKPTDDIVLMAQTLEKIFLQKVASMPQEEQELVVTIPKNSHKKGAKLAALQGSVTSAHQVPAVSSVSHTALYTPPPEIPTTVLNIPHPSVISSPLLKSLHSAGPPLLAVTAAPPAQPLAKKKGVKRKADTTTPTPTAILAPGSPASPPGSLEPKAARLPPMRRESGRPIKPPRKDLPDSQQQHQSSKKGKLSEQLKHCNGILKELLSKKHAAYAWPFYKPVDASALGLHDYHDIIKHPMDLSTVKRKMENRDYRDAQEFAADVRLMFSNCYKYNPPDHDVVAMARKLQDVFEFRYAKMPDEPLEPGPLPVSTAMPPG
How it was run: as §1

THP-1 cells = experiment: Cell growth inhibition assay (CellTiter-Glo), THP-1; details: for GI50: Homo sapiens, THP-1, read-out: THP-1 GI50; for THP-1 TGI: THP-1 cells, total growth inhibition, CellTiter-Glo;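 for all read-outs here: viability read as cellular ATP luminescence after 4 days, 3-fold dilution series from 10 µM, DMSO vehicle-treated cells taken as 100%, cell-free medium wells as −100%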
[1] = molecular target: CREBBP bromodomain (His-CREBBP(1081-1197)) (Homo sapiens (Human), UniProt Q92793); experiment: AlphaScreen in-vitro binding assay for CREBBP; details: single determination or n ≧ 2 independent determinations, read-out: Biochemical IC50 CREBBP
CREBBP bromodomain (His-CREBBP(1081-1197)), sequence (Q92793 1081-1197): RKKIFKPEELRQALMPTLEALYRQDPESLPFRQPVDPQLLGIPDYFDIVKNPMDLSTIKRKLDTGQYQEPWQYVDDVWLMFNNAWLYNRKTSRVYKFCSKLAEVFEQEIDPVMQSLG
How it was run: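 Reactions at 30 °C for 35 min, then Ni-chelate acceptor and streptavidin donor beads in HEPES pH 7.5, NaCl, Tween20, BSA, 60 min at room temperature. Eight-point compound series; IC50 by non-linear regression of percent inhibition.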

MV-4-11 cells = experiment: Cell growth inhibition assay (CellTiter-Glo), MV-4-11; details: for GI50: Homo sapiens, MV4-11, read-out: MV-4-11 GI50; for MV-4-11 TGI: MV-4-11 cells, total growth inhibition, CellTiter-Glo;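 for all read-outs here: cellular ATP luminescence after 4 days, 3-fold dilution series from 10 µM top dose, vehicle (0.1% DMSO) set to 100%, cell-free medium set to −100%, day 0 corrected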
BRD4 (His-Brd4(44-477)) = BRD4 (His-Brd4(44-477)) (Homo sapiens (Human), UniProt O60885); experiment: TR-FRET in-vitro binding assay for BRD4; details: single determination or n ≧ 2 independent determinations, read-out: Biochemical IC50 BRD4
How it was run: as §1

K-562 cells = experiment: Cell growth inhibition assay (CellTiter-Glo), K-562; details: for GI50: Homo sapiens, K562, read-out: K-562 GI50; for K-562 TGI: K-562 cells, total growth inhibition, CellTiter-Glo;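 for all read-outs here: cellular ATP measured by luminescence after 4 days of exposure, 3-fold dilution series from 10 µM, DMSO vehicle-treated cells define 100%, cell-free medium wells −100%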

BRD3 (His-Brd3(20-477)), sequence (Q15059 20-477): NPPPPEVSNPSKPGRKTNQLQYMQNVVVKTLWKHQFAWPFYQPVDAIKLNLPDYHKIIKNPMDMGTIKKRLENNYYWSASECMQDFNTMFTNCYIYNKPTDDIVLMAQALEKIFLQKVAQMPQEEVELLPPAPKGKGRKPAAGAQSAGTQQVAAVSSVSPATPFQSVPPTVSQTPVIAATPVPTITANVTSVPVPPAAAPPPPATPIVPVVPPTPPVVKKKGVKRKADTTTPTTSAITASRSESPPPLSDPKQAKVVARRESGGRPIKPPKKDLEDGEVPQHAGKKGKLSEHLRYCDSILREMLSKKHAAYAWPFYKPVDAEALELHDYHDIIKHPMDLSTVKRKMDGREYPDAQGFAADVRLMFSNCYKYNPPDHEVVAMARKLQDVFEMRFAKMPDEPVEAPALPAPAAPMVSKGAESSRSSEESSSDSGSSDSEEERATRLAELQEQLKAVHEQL

Compound | IC50 (BRD3 (His-Brd3(20-477))) | IC50 (BRD2 (His-Brd2(60-472))) | GI50 (THP-1 cells) | THP-1 TGI (THP-1 cells) | IC50 [1] | GI50 (MV-4-11 cells) | MV-4-11 TGI (MV-4-11 cells) | IC50 (BRD4 (His-Brd4(44-477))) | GI50 (K-562 cells) | K-562 TGI (K-562 cells)
COc1cc(N2C(=O)c3nc(C4=CCCN(C)C4)n(C(C)C)c3C2c2ccc(Cl)cc2)cc2c1nnn2C (centres unmarked) [Example 62] | 86 nM | 150 nM | 164 nM | 331.5 nM | 31400 nM | 41.9 nM | 80.25 nM | 120 nM | 391 nM | >10000 nM
COc1cc(N2C(=O)c3nc(C)n(C(C)C)c3C2c2ccc(Cl)cc2)cc2c1nnn2C (centres unmarked) [Example 63] | 96.5 nM | 240 nM | 192 nM | 369 nM | 21900 nM | 88.2 nM | 141 nM | 72 nM | 458 nM | >10000 nM
COC(=O)N1CC=C(c2nc3c(n2C(C)C)C(c2ccc(Cl)cc2)N(c2cc(C)c4nnc(C)n4c2)C3=O)CC1 (centres unmarked) [Example 65, methyl 4-(6-(4-chlorophenyl)-5-(3,8-dimethyl-[1,2,4]triazolo[4,3-a]pyridin-6-yl)-1-isopropyl-4-oxo-1,4,5,6-tetrahydropyrrolo[3,4-d]imidazol-2-yl)-5,6-dihydropyridine-1(2H)-carboxylate] | 27.5 nM | 50 nM | 138 nM | 299.5 nM | 4000 nM | 19.3 nM | 38.95 nM | 24 nM | 298 nM | >10000 nM
CC(=O)N1CC=C(c2nc3c(n2C(C)C)C(c2ccc(Cl)cc2)N(c2cc(C)c4nnc(C)n4c2)C3=O)CC1 (centres unmarked) [Example 66] | 66 nM | 86 nM | 1760 nM | 5860 nM | 3450 nM | 232 nM | 430 nM | 31.5 nM | 5540 nM | >10000 nM
Cc1cc(N2C(=O)c3nc(C4=CCN(S(C)(=O)=O)CC4)n(C(C)C)c3C2c2ccc(Cl)cc2)cn2c(C)nnc12 (centres unmarked) [Example 67, 6-(4-chlorophenyl)-5-(3,8-dimethyl-[1,2,4]triazolo[4,3-a]pyridin-6-yl)-1-isopropyl-2-(1-(methylsulfonyl)-1,2,3,6-tetrahydropyridin-4-yl)-5,6-dihydropyrrolo[3,4-d]imidazol-4(1H)-one] | 20.5 nM | 38 nM | 1280 nM | 3275 nM | 5200 nM | 165 nM | 332.5 nM | 17 nM | 5400 nM | >10000 nM
CCN1CC=C(c2nc3c(n2C(C)C)C(c2ccc(Cl)cc2)N(c2cc(C)c4nnc(C)n4c2)C3=O)CC1 (centres unmarked) [Example 68, 6-(4-chlorophenyl)-5-(3,8-dimethyl-[1,2,4]triazolo[4,3-a]pyridin-6-yl)-2-(1-ethyl-1,2,3,6-tetrahydropyridin-4-yl)-1-isopropyl-5,6-dihydropyrrolo[3,4-d]imidazol-4(1H)-one] | 44.5 nM | 77 nM | 258 nM | 458 nM | 5000 nM | 21.3 nM | 37.1 nM | 30 nM | 1380 nM | >10000 nM
Cc1cc(N2C(=O)c3nc(C4=CCN(C(=O)OCC(C)C)CC4)n(C(C)C)c3C2c2ccc(Cl)cc2)cn2c(C)nnc12 (centres unmarked) [Example 69, isobutyl 4-(6-(4-chlorophenyl)-5-(3,8-dimethyl-[1,2,4]triazolo[4,3-a]pyridin-6-yl)-1-isopropyl-4-oxo-1,4,5,6-tetrahydropyrrolo[3,4-d]imidazol-2-yl)-5,6-dihydropyridine-1(2H)-carboxylate] | 13 nM | 24 nM | 63.4 nM | 167.5 nM | 6100 nM | 31.6 nM | 58.45 nM | 12 nM | 184 nM | >10000 nM
CCOC(=O)N1CC=C(c2nc3c(n2C(C)C)C(c2ccc(Cl)cc2)N(c2cc(C)c4nnc(C)n4c2)C3=O)CC1 (centres unmarked) [Example 70, ethyl 4-(6-(4-chlorophenyl)-5-(3,8-dimethyl-[1,2,4]triazolo[4,3-a]pyridin-6-yl)-1-isopropyl-4-oxo-1,4,5,6-tetrahydropyrrolo[3,4-d]imidazol-2-yl)-5,6-dihydropyridine-1(2H)-carboxylate] | 17 nM | 32 nM | 59.9 nM | 188 nM | 6650 nM | 29.6 nM | 41.3 nM | 17.5 nM | 353 nM | >10000 nM
Cc1cc(N2C(=O)c3nc(C4=CCN(C(=O)OC(C)C)CC4)n(C(C)C)c3C2c2ccc(Cl)cc2)cn2c(C)nnc12 (centres unmarked) [Example 71, isopropyl 4-(6-(4-chlorophenyl)-5-(3,8-dimethyl-[1,2,4]triazolo[4,3-a]pyridin-6-yl)-1-isopropyl-4-oxo-1,4,5,6-tetrahydropyrrolo[3,4-d]imidazol-2-yl)-5,6-dihydropyridine-1(2H)-carboxylate] | 18 nM | 33 nM | 63.7 nM | 138.5 nM | 4300 nM | 31.3 nM | 44.5 nM | 18.5 nM | 228 nM | >10000 nM
Cc1cc(N2C(=O)c3nc(C4=CCN(C(=O)NC(C)(C)C)CC4)n(C(C)C)c3C2c2ccc(Cl)cc2)cn2c(C)nnc12 (centres unmarked) [Example 72, N-(tert-butyl)-4-(6-(4-chlorophenyl)-5-(3,8-dimethyl-[1,2,4]triazolo[4,3-a]pyridin-6-yl)-1-isopropyl-4-oxo-1,4,5,6-tetrahydropyrrolo[3,4-d]imidazol-2-yl)-5,6-dihydropyridine-1(2H)-carboxamide] | < 11 nM | 23 nM | 222 nM | 746 nM | 5100 nM | 45.8 nM | 96.9 nM | 12 nM | 1340 nM | >10000 nM
COc1cc(N2C(=O)c3nc(C4=CCN(C)CC4)n(C(C)C)c3C2c2ccc(Cl)cc2)cc2c1nnn2C (centres unmarked) [Example 73] | 92.5 nM | 150 nM | 93.6 nM | 254.5 nM | 16100 nM | 30.6 nM | 52.7 nM | 58 nM | 300 nM | >10000 nM
Cc1cc(N2C(=O)c3nc(C4CCNCC4)n(C(C)C)c3C2c2ccc(Cl)cc2)cn2c(C)nnc12 (centres unmarked) [Example 75, 6-(4-chlorophenyl)-5-(3,8-dimethyl-[1,2,4]triazolo[4,3-a]pyridin-6-yl)-1-isopropyl-2-(Piperidin-4-yl)-5,6-dihydropyrrolo[3,4-d]imidazol-4(1H)-one] | 24 nM | 27 nM | 1600 nM | 8630 nM | 4900 nM | 780 nM | 1125 nM | 17 nM | 8650 nM | >10000 nM
COC(=O)N1CCC(c2nc3c(n2C(C)C)C(c2ccc(Cl)cc2)N(c2cc(C)c4nnc(C)n4c2)C3=O)CC1 (centres unmarked) [Example 76, methyl 4-(6-(4-chlorophenyl)-5-(3,8-dimethyl-[1,2,4]triazolo[4,3-a]pyridin-6-yl)-1-isopropyl-4-oxo-1,4,5,6-tetrahydropyrrolo[3,4-d]imidazol-2-yl)piperidine-1-carboxylate] | 64 nM | 97 nM | 95.7 nM | 266 nM | 2050 nM | 23.3 nM | 38.8 nM | 54 nM | 314 nM | >10000 nM
Cc1cc(N2C(=O)c3nc(C4=CCN(C)CC4)n(C(C)C)c3C2c2ccc(Cl)cc2)cc2c1nnn2C (centres unmarked) [Example 78, 6-(4-chlorophenyl)-5-(1,4-dimethyl-1H-benzo[d][1,2,3]triazol-6-yl)-1-isopropyl-2-(1-methyl-1,2,3,6-tetrahydropyridin-4-yl)-5,6-dihydropyrrolo[3,4-d]imidazol-4(1H)-one] | 31 nM | 48 nM | 14.4 nM | 38.8 nM | 4300 nM | 4.54 nM | 9.58 nM | 28 nM | 49.6 nM | >10000 nM
